The text below walks through data of US20160296499A1, “Spiroindoline Antiparasitic Derivatives” (ZOETIS SERVICES LLC, priority 2013, published 2016).

The test system of one experiment is Haemonchus contortus L3. The experiment can be described thus: Haemonchus contortus, Larvae Stage 3 (HcL3) In Vitro Assay. To be noted: Haemonchus contortus.
The test system of experiment [1] is Dirofilaria immitis microfilariae. Briefly: Dirofilaria immitis, Microfilariae (DiMF) In Vitro Assay. The conditions noted are these: Dirofilaria immitis.
The target in experiment [2] is T1, bovine vesicular acetylcholine transporter (VAChT) (Bos taurus, UniProt E1BK36).
T1 sequence (E1BK36 1-524): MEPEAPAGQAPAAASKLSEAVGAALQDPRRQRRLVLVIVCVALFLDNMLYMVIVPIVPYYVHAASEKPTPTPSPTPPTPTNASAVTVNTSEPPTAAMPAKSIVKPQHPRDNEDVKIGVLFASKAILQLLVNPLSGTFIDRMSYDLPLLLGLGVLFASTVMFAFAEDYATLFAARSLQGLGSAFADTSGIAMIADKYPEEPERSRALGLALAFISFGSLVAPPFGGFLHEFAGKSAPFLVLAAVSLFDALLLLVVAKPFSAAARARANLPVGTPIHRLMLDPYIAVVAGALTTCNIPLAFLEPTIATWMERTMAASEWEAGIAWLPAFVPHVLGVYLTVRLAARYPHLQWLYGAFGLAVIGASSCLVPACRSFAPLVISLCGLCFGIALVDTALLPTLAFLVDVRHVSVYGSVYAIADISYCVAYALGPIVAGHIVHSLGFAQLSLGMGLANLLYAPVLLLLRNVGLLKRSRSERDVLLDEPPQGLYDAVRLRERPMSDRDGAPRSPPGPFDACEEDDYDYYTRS
The experiment can be described thus: Radioligand Binding Assay. To be noted: Bovine binding Ki, CHO-K1 membranes with recombinant bovine VAChT, [3H]Compound X6 0.3 nM.

Where [3] appears, read: 96 h, read-out: HcL3 MEC, Minimal Effective Concentration whereby worm motility is inhibited by approximately 70%, 37° C., tested 0.001-100 μM.
Setting [4] is: 72 h, read-out: Di MF, MEC, decrease in microfilariae motility by visual assessment, curve starting at 100 μM.
Setting [5] is: 96 hours, 37° C., read-out: HcL3 MEC.

Read-outs that look alike come from different tables or passages of the source.

As for `O=C(NCc1ccc(O)cc1)N1CC2(CCN(C/C=C/c3ccc(Cl)c(Cl)c3)CC2)c2c1ccc1scnc21` [Example 18, (E)-1-(3-(3,4-dichlorophenyl)allyl)-N-(4-hydroxybenzyl)spiro[piperidine-4,8′-thiazolo[4,5-e]indole]-6′(7′H)-carboxamide], the minimal effective concentration with Haemonchus contortus L3 (setting [3]) came out at 100 µM; in experiment [1] (setting [4]), 43.5 µM. Also, in experiment [2], the Ki (as a rule, the dissociation constant of the complex between target and ligand, obtained from inhibition or displacement) worked out at 2.22 µM.

Regarding `O=C(NCc1ccnc(F)c1)N1CC2(CCN(C/C=C/c3ccc(Cl)c(Cl)c3)CC2)c2cc(-c3cccnc3)ccc21` [Example 110, 1′-[(E)-3-(3,4-dichlorophenyl)allyl]-N-[(2-fluoro-4-pyridyl)methyl]-5-(3-pyridyl)spiro[indoline-3,4′-piperidine]-1-carboxamide], the minimal effective concentration in the experiment with Haemonchus contortus L3 (setting [3]) was found to be 69.1 µM; in experiment [1] (setting [4]), 3.3 µM. For the same compound, the inhibition constant Ki in experiment [2] was 7.82 µM.

For `O=C(NCc1ccnc(Cl)c1)N1CC2(CCN(C/C=C/c3ccc(Cl)c(Cl)c3)CC2)c2c1cccc2C(F)(F)F` [Example 56, (E)-N-((2-chloropyridin-4-yl)methyl)-1′-(3-(3,4-dichlorophenyl)allyl)-4-(trifluoromethyl)spiro[indoline-3,4′-piperidine]-1-carboxamide], the minimal effective concentration in the experiment on Haemonchus contortus L3 (setting [5]) turned out to be 4.5 µM; in experiment [1] (72 hours, read-out: Di MF), 9.1 µM. The Ki in experiment [2] worked out at 0.432 µM.

In the case of `O=C(NCc1ccnc(Cl)c1)N1CC2(CCN(C/C=C/c3ccc(C(F)(F)F)cn3)CC2)c2c1ccc1scnc21` [Example 41, (E)-N-((2-chloropyridin-4-yl)methyl)-1-(3-(5-(trifluoromethyl)pyridin-2-yl)allyl)spiro[piperidine-4,8′-thiazolo[4,5-e]indole]-6′(7′H)-carboxamide], the minimal effective concentration in the experiment on Haemonchus contortus L3 (setting [3]) is above 100 µM; in experiment [1] (setting [4]), 33 µM. Moreover, the inhibition constant (Ki) in experiment [2] stood at 0.428 µM.

`O=C(NCc1ccnc(F)c1)N1CC2(CCN(C/C=C/c3ccc(Cl)cc3)CC2)c2c(C3CC3)cccc21` [Example 93, (E)-1′-(3-(4-chlorophenyl)allyl)-4-cyclopropyl-N-((2-fluoropyridin-4-yl)methyl)spiro[indoline-3,4′-piperidine]-1-carboxamide]: the minimal effective concentration in the experiment on Haemonchus contortus L3 (setting [3]) was 100 µM; in experiment [1] (setting [4]) it was 5.7 µM. Also, in experiment [2], the inhibition constant Ki is 0.958 µM.

Turning to `COc1ccc2c(c1)C1(CCN(C/C=C/c3ccc(Cl)c(Cl)c3)CC1)CN2C(=O)NCc1ccnc(Cl)c1` [Example 167, (E)-N-((2-chloropyridin-4-yl)methyl)-1′-(3-(3,4-dichlorophenyl)allyl)-5-methoxyspiro[indoline-3,4′-piperidine]-1-carboxamide], the minimal effective concentration was determined as 6.9 µM in the experiment with Haemonchus contortus L3 (setting [5]) and 33 µM in experiment [1] (72 hours, read-out: Di MF). Also, the inhibition constant (Ki) in experiment [2] is 0.184 µM.

Take `O=C(NCc1ccnc(Cl)c1)N1CC2(CCN(C/C=C/c3ccc(Cl)c(Cl)c3)CC2)c2cc(OC(F)(F)F)ccc21` [Example 55, (E)-N-((2-chloropyridin-4-yl)methyl)-1′-(3-(3,4-dichlorophenyl)allyl)-5-(trifluoromethoxy)spiro[indoline-3,4′-piperidine]-1-carboxamide]: the minimal effective concentration came out at 3.3 µM in the experiment with Haemonchus contortus L3 (setting [3]) and 5.7 µM in experiment [1] (setting [4]). In addition, in experiment [2], the Ki amounted to 0.876 µM.

For `O=C(NCc1ccnc(F)c1)N1CC2(CCN(C/C=C/c3ccc(Cl)cc3)CC2)c2cc(C(F)(F)F)ccc21` [Example 82, (E)-1′-(3-(4-chlorophenyl)allyl)-N-((2-fluoropyridin-4-yl)methyl)-5-(trifluoromethyl)spiro[indoline-3,4′-piperidine]-1-carboxamide], the results for the minimal effective concentration (in the experiment on Haemonchus contortus L3 (setting [3]); in experiment [1] (setting [4])) were 7.6 µM and 4.4 µM, respectively. Besides, in experiment [2], the Ki came to 0.572 µM.

`Cc1nc2c3c(ccc2s1)N(C(=O)NCc1ccnc(Cl)c1)CC31CCN(C/C=C/c2ccc(F)cc2)CC1` [Example 44, (E)-N-((2-chloropyridin-4-yl)methyl)-1-(3-(4-fluorophenyl)allyl)-2′-methylspiro[piperidine-4,8′-thiazolo[4,5-e]indole]-6′(7′H)-carboxamide]: the minimal effective concentration in the experiment with Haemonchus contortus L3 (setting [5]) is above 100 µM; in experiment [1] (72 hours, read-out: Di MF) it was 10 µM. In addition, the inhibitory constant (Ki) in experiment [2] was determined as 0.507 µM.

As for `O=C(NCc1ccnc(F)c1)N1CC2(CCN(C/C=C/c3ccc(Cl)c(Cl)c3)CC2)c2cc(Br)ccc21` [Example 104, 5-bromo-1′-[(E)-3-(3,4-dichlorophenyl)allyl]-N-[(2-fluoro-4-pyridyl)methyl]spiro[indoline-3,4′-piperidine]-1-carboxamide], the minimal effective concentration in the experiment on Haemonchus contortus L3 (setting [5]) stood at 3.3 µM; in experiment [1] (72 hours, read-out: Di MF), 10 µM. Further, in experiment [2], the Ki was 0.0437 µM.

In the case of `N#Cc1ccc(/C=C/CN2CCC3(CC2)CN(C(=O)NCc2ccnc(Cl)c2)c2cc(C(F)(F)F)c(Cl)cc23)cc1` [Example 72, (E)-5-chloro-N-((2-chloropyridin-4-yl)methyl)-1′-(3-(4-cyanophenyl)allyl)-6-(trifluoromethyl)spiro[indoline-3,4′-piperidine]-1-carboxamide], the values for the minimal effective concentration (with Haemonchus contortus L3 (setting [3]); in experiment [1] (setting [4])) were 10 µM and 3.3 µM, respectively. In experiment [2], the inhibition constant Ki stood at 0.027 µM.

Take `O=C(NCc1ccnc(Cl)c1)N1CC2(CCN(C/C=C/c3ccc(Cl)c(Cl)c3)CC2)c2cc3c(cc21)CCC3` [Example 12, (E)-N-((2-chloropyridin-4-yl)methyl)-1′-(3-(3,4-dichlorophenyl)allyl)-2,5,6,7-tetrahydro-1H-spiro[cyclopenta[f]indole-3,4′-piperidine]-1-carboxamide]: the minimal effective concentration in the experiment with Haemonchus contortus L3 (setting [5]) stood at 2.2 µM; in experiment [1] (72 hours, read-out: Di MF) it was 10 µM. In experiment [2], the Ki was found to be 0.0563 µM.

`Cn1ccc(CNC(=O)N2CC3(CCN(C/C=C/c4ccc(Cl)c(Cl)c4)CC3)c3c2ccc2scnc32)n1` [Example 28, (E)-1-(3-(3,4-dichlorophenyl)allyl)-N-((1-methyl-1H-pyrazol-3-yl)methyl)spiro[piperidine-4,8′-thiazolo[4,5-e]indole]-6′(7′H)-carboxamide]: the results for the minimal effective concentration (with Haemonchus contortus L3 (setting [3]); in experiment [1] (setting [4])) were 100 µM and 10 µM, respectively. Further, in experiment [2], the Ki stood at 0.511 µM.

As to `COc1ccc(/C=C/CN2CCC3(CC2)CN(C(=O)NCc2ccnc(Cl)c2)c2cc(C(F)(F)F)ccc23)cc1` [Example 125, (E)-N-((2-chloropyridin-4-yl)methyl)-1′-(3-(4-methoxyphenyl)allyl)-6-(trifluoromethyl)spiro[indoline-3,4′-piperidine]-1-carboxamide], the minimal effective concentration in the experiment with Haemonchus contortus L3 (setting [3]) was found to be 1 µM; in experiment [1] (setting [4]), 10 µM. In experiment [2], the Ki was 0.0204 µM.

With `N#Cc1ccc(/C=C/CN2CCC3(CC2)CN(C(=O)NCc2ccnc(Cl)c2)c2ccc([N+](=O)[O-])cc23)cc1` [Example 97, (E)-N-((2-chloropyridin-4-yl)methyl)-1′-(3-(4-cyanophenyl)allyl)-5-nitrospiro[indoline-3,4′-piperidine]-1-carboxamide], the minimal effective concentration in the experiment on Haemonchus contortus L3 (setting [3]) came out at 33 µM; in experiment [1] (setting [4]), 5.7 µM. The inhibition constant Ki in experiment [2] stood at 0.0637 µM.

Regarding `O=C(NCc1cnc(Cl)s1)N1CC2(CCN(C/C=C/c3ccc(Cl)cc3)CC2)c2cc3c(cc21)COC3` [Example 3, (E)-1′-(3-(4-chlorophenyl)allyl)-N-((2-chlorothiazol-5-yl)methyl)-5,7-dihydrospiro[furo[3,4-f]indole-3,4′-piperidine]-1(2H)-carboxamide], the minimal effective concentration with Haemonchus contortus L3 (setting [5]) worked out at 3.3 µM; in experiment [1] (72 hours, read-out: Di MF) it was 5.7 µM. Besides, the Ki in experiment [2] amounted to 0.0312 µM.

On to `O=C(NCc1ccnc(Cl)c1)N1CC2(CCN(C/C=C/c3ccc(Cl)c(Cl)c3)CC2)c2c1ccc1c2OCCO1` [Example 11, (E)-N-((2-chloropyridin-4-yl)methyl)-1-(3-(3,4-dichlorophenyl)allyl)-2′,3′-dihydrospiro[piperidine-4,9′-[1,4]dioxino[2,3-e]indole]-7′(8′H)-carboxamide], for which the minimal effective concentration in the experiment with Haemonchus contortus L3 (setting [3]) worked out at 100 µM; in experiment [1] (setting [4]) it was 10 µM. Further, the inhibitory constant (Ki) in experiment [2] stood at 0.178 µM.

With `O=C(NCc1ccnc(Cl)c1)N1CC2(CCN(C/C=C/c3ccc(Cl)cc3)CC2)c2cc(S(F)(F)(F)(F)F)ccc21` [Example 169, (E)-1′-(3-(4-chlorophenyl)allyl)-N-((2-chloropyridin-4-yl)methyl)-5-(pentafluorosulfide)spiro[indoline-3,4′-piperidine]-1-carboxamide], the minimal effective concentration in the experiment on Haemonchus contortus L3 (setting [3]) is 47.8 µM; in experiment [1] (setting [4]), 3.3 µM. In experiment [2], the inhibitory constant (Ki) worked out at 0.467 µM.

On to `Cc1c(F)ccc2c1C1(CCN(C/C=C/c3ccc(Cl)cc3)CC1)CN2C(=O)NCc1ccnc(Cl)c1` [Example 155, (E)-1′-(3-(4-chlorophenyl)allyl)-N-((2-chloropyridin-4-yl)methyl)-5-fluoro-4-methylspiro[indoline-3,4′-piperidine]-1-carboxamide], for which the minimal effective concentration in the experiment on Haemonchus contortus L3 (setting [3]) was determined as 7.3 µM; in experiment [1] (setting [4]), 3.3 µM. Moreover, the Ki in experiment [2] was found to be 0.0748 µM.
